Earlier results as cited in patent US20040102473A1, “Method of preventing or treating atherosclerosis or restenosis” (priority 2002, published 2004).

System: CMV
Conditions: DHPG prophylaxis, Lemstrom et al., Circulation 1994

For Nc1nc(O)c2ncn(COC(CO)CO)c2n1 [Ganciclovir], the “prevention of atherosclerosis resulting from CMV infection of rats” value is listed as “prevent atherosclerosis”.
